Here are results for one compound from PMC3670929, “Zn(II)-Chlorido Complexes of Phytohormone Kinetin and Its Derivatives Modulate Expression of Inflammatory Mediators in THP-1 Cells” (PLoS ONE, 2013).

This experiment deals with IL-1β. Put plainly: LPS-induced IL-1β secretion in THP-1 macrophage-like cells (ELISA). It counts as cell-based, human. The settings on record: complexes 5 µM, prednisone 1 µM, 1 h pre-treatment, 24 h after LPS. The procedure: To determine the influence of the tested complexes on the TNF-α and IL-1β secretions and MMPs activity, macrophage-like cells derived from the THP-1 cell line were used. The cells were cultivated as above, but were split into 24-well microtitre plates to get a concentration of 100 000 cells/mL (1 mL/well) and the differentiation to macrophages was induced by phorbol myristate acetate (PMA) as described previously. Differentiated macrophages were pre-treated for 1 h with 5 µM solutions of the tested complexes or 1 µM prednisone dissolved in DMSO [the final DMSO concentration was 0.1% (v/v)] and with the 0.1% (v/v) DMSO solution itself (the experimental group called vehicle); the given concentrations of the compounds lack the cytotoxic effect. The inflammatory response was triggered by adding 1 µg/mL Escherichia coli 0111:B4 lipopolysaccharide (LPS) (Sigma-Aldrich, Germany) dissolved in water to pre-treated macrophages, control cells were without the LPS treatment. Each experiment was performed in triplicate. Macrophages, which were pre-treated with the tested compounds for 1 h, were incubated with LPS for the next 24 h. Then, the medium was collected and the concentrations of TNF-α and IL-1β were measured by an Instant ELISA kit (eBioscience, Austria) according to the manufacturer’s manual.

In the case of `C[C@]12C=CC(=O)C=C1CC[C@@H]1[C@@H]2C(=O)C[C@@]2(C)[C@H]1CC[C@]2(O)C(=O)CO` [prednisone, reference compound], the “decrease of IL-1β secretion, factor in comparison with the vehicle-treated cells” value is 2.42 times.
